Source: article PMC3314994, “Inhibitors of human histone deacetylase with potent activity against the African trypanosome Trypanosoma brucei” (Bioorganic & Medicinal Chemistry Letters, 2012)

Tests used:
[1] = target: T1, rhHDAC 7 (Homo sapiens, UniProt Q8WUI4); experiment: Inhibition of recombinant human HDAC isoforms; format: biochemical; conditions: mean ± SD, triplicate per plate, min two plates; read-out: ED50 rhHDAC 7
T1 sequence (Q8WUI4 1-952): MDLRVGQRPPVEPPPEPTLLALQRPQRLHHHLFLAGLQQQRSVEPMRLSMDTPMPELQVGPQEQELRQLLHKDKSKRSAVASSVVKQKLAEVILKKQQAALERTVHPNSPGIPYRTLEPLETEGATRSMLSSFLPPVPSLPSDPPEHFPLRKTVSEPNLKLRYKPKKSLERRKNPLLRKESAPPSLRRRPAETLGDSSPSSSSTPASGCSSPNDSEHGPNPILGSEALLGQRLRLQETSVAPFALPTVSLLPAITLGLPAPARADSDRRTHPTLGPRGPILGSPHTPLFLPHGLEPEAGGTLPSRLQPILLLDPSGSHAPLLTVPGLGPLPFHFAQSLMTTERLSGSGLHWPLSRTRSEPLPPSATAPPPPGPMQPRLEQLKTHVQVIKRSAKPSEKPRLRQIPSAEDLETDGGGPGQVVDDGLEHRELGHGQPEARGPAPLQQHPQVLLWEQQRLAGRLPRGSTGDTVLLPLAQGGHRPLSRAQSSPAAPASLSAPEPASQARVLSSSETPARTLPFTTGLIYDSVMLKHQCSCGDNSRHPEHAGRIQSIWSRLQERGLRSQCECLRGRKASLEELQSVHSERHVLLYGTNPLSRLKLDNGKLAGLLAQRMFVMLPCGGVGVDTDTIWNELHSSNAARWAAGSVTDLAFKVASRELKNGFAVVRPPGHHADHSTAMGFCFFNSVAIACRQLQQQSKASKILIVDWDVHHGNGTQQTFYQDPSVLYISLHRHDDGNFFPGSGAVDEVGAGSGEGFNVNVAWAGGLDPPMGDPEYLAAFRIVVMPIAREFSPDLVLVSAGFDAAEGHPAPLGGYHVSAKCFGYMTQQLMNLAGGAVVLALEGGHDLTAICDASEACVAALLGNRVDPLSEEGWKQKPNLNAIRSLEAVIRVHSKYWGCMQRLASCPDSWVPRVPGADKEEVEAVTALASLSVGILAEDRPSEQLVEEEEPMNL
From the text: (§1) The compounds from the different structural subclasses were all active as HDAC inhibitors, measured in an assay of enzymes in HeLa cell lysates.[23,24] HeLa cells express multiple HDACs, including HDAC 1, 2, 3, 4, and 8.[25–27] […] To further characterise the compounds with respect to HDAC selectivity, we determined their inhibitory properties against recombinant expressed human HDACs (rhHDAC 1–4, 6–9).[28]

[2] = target: rhHDAC 2 (Homo sapiens, UniProt Q92769); experiment: Inhibition of recombinant human HDAC isoforms; format: biochemical; conditions: mean ± SD, triplicate per plate, min two plates; read-out: ED50 rhHDAC 2
rhHDAC 2, sequence (Q92769 whole entry, canonical isoform): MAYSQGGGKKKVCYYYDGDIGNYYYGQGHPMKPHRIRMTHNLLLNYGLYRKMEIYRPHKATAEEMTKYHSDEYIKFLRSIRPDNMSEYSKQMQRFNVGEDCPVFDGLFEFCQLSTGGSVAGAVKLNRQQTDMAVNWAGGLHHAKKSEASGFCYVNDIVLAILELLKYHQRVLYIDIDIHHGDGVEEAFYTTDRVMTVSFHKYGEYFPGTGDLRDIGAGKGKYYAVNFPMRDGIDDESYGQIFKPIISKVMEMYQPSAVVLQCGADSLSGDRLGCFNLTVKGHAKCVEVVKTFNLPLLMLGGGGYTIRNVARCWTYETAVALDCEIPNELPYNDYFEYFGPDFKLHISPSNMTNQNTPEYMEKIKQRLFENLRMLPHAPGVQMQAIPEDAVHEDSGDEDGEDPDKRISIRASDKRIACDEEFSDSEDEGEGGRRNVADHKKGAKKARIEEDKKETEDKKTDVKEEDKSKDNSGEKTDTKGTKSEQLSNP
From the text: as §1

[3] = target: T2, rhHDAC 6 (Homo sapiens, UniProt Q9UBN7); experiment: Inhibition of recombinant human HDAC isoforms; format: biochemical; conditions: mean ± SD, triplicate per plate, min two plates; read-out: ED50 rhHDAC 6
T2 sequence (Q9UBN7 1-1215): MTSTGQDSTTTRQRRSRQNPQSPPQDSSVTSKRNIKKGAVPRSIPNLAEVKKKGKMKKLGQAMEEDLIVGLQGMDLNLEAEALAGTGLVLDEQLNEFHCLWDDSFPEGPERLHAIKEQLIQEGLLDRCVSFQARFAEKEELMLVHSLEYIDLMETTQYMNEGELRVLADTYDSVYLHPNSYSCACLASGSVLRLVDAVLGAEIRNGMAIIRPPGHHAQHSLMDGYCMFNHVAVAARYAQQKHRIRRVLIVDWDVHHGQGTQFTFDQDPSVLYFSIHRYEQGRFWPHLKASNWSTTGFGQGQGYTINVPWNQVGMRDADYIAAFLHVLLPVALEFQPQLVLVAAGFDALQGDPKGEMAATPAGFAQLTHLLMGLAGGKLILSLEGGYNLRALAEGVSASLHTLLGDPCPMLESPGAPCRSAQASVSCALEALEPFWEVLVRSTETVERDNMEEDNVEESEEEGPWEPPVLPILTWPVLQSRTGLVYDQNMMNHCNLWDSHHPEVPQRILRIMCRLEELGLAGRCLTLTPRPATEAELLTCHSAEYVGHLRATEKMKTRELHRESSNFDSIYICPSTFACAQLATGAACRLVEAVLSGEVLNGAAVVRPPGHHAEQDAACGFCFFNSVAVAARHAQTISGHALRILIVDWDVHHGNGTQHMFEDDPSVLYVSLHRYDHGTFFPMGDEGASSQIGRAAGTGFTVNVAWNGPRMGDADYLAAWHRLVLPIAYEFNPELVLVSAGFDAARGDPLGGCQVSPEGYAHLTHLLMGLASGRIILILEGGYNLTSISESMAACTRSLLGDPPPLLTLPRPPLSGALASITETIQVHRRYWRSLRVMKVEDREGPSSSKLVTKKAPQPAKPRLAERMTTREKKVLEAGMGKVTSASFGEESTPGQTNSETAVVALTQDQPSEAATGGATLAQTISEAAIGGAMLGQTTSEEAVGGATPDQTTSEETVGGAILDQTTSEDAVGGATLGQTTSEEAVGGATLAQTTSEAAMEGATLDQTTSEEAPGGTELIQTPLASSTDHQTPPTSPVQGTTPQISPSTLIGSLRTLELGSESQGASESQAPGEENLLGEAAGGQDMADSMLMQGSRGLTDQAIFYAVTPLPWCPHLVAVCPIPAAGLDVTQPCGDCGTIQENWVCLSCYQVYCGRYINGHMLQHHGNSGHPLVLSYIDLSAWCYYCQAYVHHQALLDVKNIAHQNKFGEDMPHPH
From the text: as §1

[4] = target: rhHDAC 9 (Homo sapiens, UniProt Q9UKV0); experiment: Inhibition of recombinant human HDAC isoforms; format: biochemical; conditions: mean ± SD, triplicate per plate, min two plates; read-out: ED50 rhHDAC 9
rhHDAC 9, sequence (Q9UKV0 whole entry, canonical isoform): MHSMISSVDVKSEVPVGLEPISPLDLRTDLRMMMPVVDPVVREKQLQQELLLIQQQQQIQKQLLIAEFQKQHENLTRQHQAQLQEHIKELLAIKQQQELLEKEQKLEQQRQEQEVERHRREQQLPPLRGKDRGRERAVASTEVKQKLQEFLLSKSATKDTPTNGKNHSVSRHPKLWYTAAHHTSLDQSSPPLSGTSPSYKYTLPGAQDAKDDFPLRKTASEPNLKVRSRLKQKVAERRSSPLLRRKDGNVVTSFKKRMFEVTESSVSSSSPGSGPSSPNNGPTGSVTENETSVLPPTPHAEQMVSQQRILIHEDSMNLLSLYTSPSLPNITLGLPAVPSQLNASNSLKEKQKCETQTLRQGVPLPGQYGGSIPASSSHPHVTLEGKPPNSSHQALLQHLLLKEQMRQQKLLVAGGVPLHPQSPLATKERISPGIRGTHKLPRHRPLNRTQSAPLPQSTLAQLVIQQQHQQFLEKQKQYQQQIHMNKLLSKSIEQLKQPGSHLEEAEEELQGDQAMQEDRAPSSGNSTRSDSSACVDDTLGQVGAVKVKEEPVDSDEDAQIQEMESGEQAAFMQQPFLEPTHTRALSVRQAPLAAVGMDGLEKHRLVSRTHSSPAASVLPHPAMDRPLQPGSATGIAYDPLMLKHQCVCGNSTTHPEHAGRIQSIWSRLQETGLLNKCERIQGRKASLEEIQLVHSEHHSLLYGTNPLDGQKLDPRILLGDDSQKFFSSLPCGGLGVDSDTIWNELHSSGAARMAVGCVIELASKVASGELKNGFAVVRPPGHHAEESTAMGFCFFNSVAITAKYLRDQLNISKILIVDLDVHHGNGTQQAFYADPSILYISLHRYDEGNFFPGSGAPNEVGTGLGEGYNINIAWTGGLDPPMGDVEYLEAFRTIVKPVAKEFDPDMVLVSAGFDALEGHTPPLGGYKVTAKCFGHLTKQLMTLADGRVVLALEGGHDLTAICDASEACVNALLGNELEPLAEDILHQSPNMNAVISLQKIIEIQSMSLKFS
From the text: as §1

[5] = target: rhHDAC 3 (Homo sapiens, UniProt O15379); experiment: Inhibition of recombinant human HDAC isoforms; format: biochemical; conditions: mean ± SD, triplicate per plate, min two plates; read-out: ED50 rhHDAC 3
rhHDAC 3, sequence (O15379 whole entry, canonical isoform): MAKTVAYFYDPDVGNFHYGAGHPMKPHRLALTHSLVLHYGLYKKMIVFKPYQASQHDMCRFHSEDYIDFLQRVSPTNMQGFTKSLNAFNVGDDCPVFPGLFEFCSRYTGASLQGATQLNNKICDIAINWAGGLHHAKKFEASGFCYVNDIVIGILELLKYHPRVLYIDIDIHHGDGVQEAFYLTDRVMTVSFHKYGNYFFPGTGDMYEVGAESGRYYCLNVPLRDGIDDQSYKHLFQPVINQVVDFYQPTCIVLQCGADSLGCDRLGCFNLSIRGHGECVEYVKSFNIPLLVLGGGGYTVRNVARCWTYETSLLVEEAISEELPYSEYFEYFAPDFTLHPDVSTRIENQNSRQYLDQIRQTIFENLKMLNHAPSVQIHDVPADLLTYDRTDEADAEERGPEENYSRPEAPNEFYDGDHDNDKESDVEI
rhHDAC 3, sequence (Q9Y618 395-489 partner limits assumed): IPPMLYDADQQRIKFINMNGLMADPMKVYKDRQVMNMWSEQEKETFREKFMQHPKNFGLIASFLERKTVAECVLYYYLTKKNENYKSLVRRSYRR
From the text: as §1

[6] = target: T3, rhHDAC 8 (Homo sapiens, UniProt Q9BY41); experiment: Inhibition of recombinant human HDAC isoforms; format: biochemical; conditions: mean ± SD, triplicate per plate, min two plates; read-out: ED50 rhHDAC 8
T3 sequence (Q9BY41 1-377): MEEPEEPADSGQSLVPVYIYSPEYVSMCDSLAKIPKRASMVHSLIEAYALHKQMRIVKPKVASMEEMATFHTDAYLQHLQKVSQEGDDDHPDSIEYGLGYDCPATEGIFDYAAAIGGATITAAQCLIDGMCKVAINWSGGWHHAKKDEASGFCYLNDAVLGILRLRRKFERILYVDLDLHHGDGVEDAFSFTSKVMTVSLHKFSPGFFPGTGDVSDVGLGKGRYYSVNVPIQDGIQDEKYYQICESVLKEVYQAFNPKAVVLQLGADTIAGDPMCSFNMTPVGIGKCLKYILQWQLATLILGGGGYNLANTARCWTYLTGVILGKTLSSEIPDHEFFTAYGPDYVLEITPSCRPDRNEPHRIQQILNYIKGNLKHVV
From the text: as §1

[7] = tested on: Trypanosoma brucei (BSF); experiment: Growth inhibition of cultured bloodstream form T. brucei; format: cell-based, Trypanosoma brucei (strain 427); conditions: Trypanosoma brucei, cultured bloodstream form, strain 427, triplicate; for IC50: read-out: Trypanosoma brucei (BSF) IC50 ± SD; for IC90: read-out: Trypanosoma brucei (BSF) IC90 ± SD
Description: Treatment of parasites with micromolar levels of these inhibitors could result in cell death within 4 h (Fig. 1).
[30] Growth inhibitory properties against cultured bloodstream form T. brucei were determined as described previously.[29] Experiments were performed in triplicate and data are presented as ±SD.

[8] = tested on: HDAC (FDL_HELA); experiment: Histone deacetylase activity in HeLa cell lysates (fluorescent assay kit); format: biochemical, Human; conditions: lysed HeLa cells; read-out: HDAC (FDL_HELA) IC50 ± SD
Description: as §1
[24] Histone deacetylase activity was determined in lysed Human cervix epithelial cancer HeLa cells. To determine the IC50 of test compound a commercially available fluorescent assay kit was used employing an acetylated enzyme substrate.[23]

[9] = target: rhHDAC 1 (Homo sapiens, UniProt Q13547); experiment: Inhibition of recombinant human HDAC isoforms; format: biochemical; conditions: mean ± SD, triplicate per plate, min two plates; read-out: ED50 rhHDAC 1
rhHDAC 1, sequence (Q13547 whole entry, canonical isoform): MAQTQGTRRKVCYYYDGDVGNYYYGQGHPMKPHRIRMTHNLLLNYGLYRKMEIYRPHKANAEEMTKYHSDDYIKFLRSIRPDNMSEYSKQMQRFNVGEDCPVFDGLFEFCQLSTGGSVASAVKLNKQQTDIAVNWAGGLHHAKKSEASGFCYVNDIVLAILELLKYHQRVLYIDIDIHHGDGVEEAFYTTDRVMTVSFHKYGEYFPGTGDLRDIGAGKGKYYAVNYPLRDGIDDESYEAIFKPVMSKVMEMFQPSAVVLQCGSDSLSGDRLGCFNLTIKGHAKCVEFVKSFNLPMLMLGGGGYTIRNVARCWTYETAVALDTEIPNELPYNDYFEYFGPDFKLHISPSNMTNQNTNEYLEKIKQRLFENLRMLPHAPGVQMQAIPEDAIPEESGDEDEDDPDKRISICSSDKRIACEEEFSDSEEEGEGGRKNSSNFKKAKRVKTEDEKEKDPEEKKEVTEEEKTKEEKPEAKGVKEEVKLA
From the text: as §1

[10] = target: rhHDAC 4 (Homo sapiens, UniProt P56524); experiment: Inhibition of recombinant human HDAC isoforms; format: biochemical; conditions: mean ± SD, triplicate per plate, min two plates; read-out: ED50 rhHDAC 4
rhHDAC 4, sequence (P56524 whole entry, canonical isoform): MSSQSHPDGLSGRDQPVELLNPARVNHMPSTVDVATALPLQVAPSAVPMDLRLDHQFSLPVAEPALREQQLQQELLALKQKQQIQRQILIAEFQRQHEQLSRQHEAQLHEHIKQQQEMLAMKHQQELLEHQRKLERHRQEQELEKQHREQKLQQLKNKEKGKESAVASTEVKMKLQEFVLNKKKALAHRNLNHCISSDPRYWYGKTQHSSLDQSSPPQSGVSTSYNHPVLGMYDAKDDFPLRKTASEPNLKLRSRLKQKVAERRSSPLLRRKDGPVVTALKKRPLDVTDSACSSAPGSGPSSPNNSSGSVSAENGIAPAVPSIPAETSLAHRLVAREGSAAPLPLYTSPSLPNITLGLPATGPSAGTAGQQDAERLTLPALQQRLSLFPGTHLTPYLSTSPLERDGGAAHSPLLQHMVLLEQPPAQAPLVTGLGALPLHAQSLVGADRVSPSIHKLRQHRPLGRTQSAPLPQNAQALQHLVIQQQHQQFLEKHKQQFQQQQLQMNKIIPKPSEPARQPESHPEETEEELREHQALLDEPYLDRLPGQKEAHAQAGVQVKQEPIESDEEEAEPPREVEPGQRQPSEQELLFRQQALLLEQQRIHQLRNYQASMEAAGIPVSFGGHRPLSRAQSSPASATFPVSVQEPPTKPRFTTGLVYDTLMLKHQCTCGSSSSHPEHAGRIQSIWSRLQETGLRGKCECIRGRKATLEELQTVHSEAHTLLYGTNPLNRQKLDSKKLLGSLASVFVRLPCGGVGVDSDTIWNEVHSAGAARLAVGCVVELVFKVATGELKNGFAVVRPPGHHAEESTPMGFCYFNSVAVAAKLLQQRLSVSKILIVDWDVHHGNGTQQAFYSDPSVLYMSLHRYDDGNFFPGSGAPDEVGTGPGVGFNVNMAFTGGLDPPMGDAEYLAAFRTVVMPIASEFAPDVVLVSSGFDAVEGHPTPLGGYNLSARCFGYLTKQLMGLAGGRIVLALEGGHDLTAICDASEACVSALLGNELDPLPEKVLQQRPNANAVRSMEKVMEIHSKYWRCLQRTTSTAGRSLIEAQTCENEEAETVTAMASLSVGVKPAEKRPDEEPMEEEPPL
From the text: as §1

Row | Compound | IC50 [1] [nM] | IC50 [2] [nM] | IC50 [3] [nM] | IC50 [4] [nM] | IC50 [5] [nM] | IC50 [6] [nM] | IC50 [7] [nM] | IC90 [7] [nM] | IC50 [8] [nM] | IC50 [9] [nM] | IC50 [10] [nM]
1 | O=C(/C=C/c1cccc(S(=O)(=O)N2CCN(c3ccccn3)CC2)c1)NO [Compound 3] | 100 ± 97 | 55 ± 6 | 179 ± 115 | 86 ± 61 | 2.8 ± 0.4 | 581 ± 334 | 86 ± 9 | 201 ± 5 | 123 ± 76 |  | 
2 | O=C(/C=C/c1cccc(S(=O)(=O)N2CCN(c3ccc(Cl)cc3)CC2)c1)NO [Compound 2] |  |  |  |  |  |  | 64 ± 5 | 130 ± 5 | 149 ± 6 |  | 
3 | O=C(/C=C/c1cccc(S(=O)(=O)N2CCN(c3cccc(Cl)c3)CC2)c1)NO [Compound 4] |  |  |  |  |  |  | 123 ± 6 | 169 ± 8 | 187 ± 82 |  | 
4 | O=C(/C=C/c1cccc(S(=O)(=O)N2CCN(c3ccccc3Cl)CC2)c1)NO [Compound 7] |  |  |  |  |  |  | 154 ± 13 | 281 ± 19 | 68 ± 36 |  | 
5 | O=C(/C=C/c1cccc(S(=O)(=O)Nc2ccc(OC(F)F)cc2)c1)NO [Compound 8] |  |  |  |  |  |  | 154 ± 13 | 306 ± 61 | 10 ± 2 |  | 

Second part, the compound after the results:

Row | IC50 [1] [nM] | IC50 [2] [nM] | IC50 [3] [nM] | IC50 [4] [nM] | IC50 [5] [nM] | IC50 [6] [nM] | IC50 [7] [nM] | IC90 [7] [nM] | IC50 [8] [nM] | IC50 [9] [nM] | IC50 [10] [nM] | Compound
6 |  |  |  |  |  |  | > 10000 |  |  |  |  | CC(/C=C/c1ccccc1)=C\C(=O)NCCCCCC(=O)NO [Compound 23]
7 | 42 ± 22 | 105 ± 64 | 36 ± 3 | 26 ± 3 | 23 ± 2 | 167 ± 72 | 606 ± 81 | 956 ± 35 | 13 ± 5 | 19 ± 1 | 33 ± 1 | COc1ccc(NS(=O)(=O)c2cccc(/C=C/C(=O)NO)c2)cc1 [Compound 18]
8 |  |  |  |  |  |  | 198 ± 21 | 333 ± 28 | 22 ± 2 |  |  | COc1cccc(NS(=O)(=O)c2cccc(/C=C/C(=O)NO)c2)c1 [Compound 13]
9 | 216 ± 133 | 221 ± 141 | 35 ± 16 | 109 ± 56 | 89 ± 32 | 211 ± 42 | 343 ± 17 | 710 ± 17 | 20 ± 4 | 44 ± 0.1 | 65 ± 20 | O=C(/C=C/c1cccc(S(=O)(=O)Nc2cccc(F)c2)c1)NO [Compound 15]
10 |  |  |  |  |  |  | > 10000 |  |  |  |  | CN(CCCCCC(=O)NO)C(=O)/C=C/C=C/c1ccccc1 [Compound 24]
11 |  |  |  |  |  |  | > 10000 |  | 20 ± 2 |  |  | O=C(/C=C/c1ccccc1)NCCCCCC(=O)NO [Compound 22]
